How the values were obtained:
oral bioavailability = conditions: in vivo
MRT xenograft = experiment: MRT xenograft-bearing mice; format: in vivo
[1] = test system: INI1-deleted malignant rhabdoid tumor (MRT) models; experiment: INI1-deleted malignant rhabdoid tumor (MRT) models in vitro; format: cell-based

oral bioavailability (oral bioavailability): orally bioavailable
Structure (SMILES): CCN(c1cc(-c2ccc(CN3CCOCC3)cc2)cc(C(=O)NCc2c(C)cc(C)[nH]c2=O)c1C)C1CCOCC1 [EPZ-6438]
apoptosis and differentiation (MRT xenograft): induce apoptosis and differentiation | apoptosis and differentiation [1]: induce apoptosis and differentiation
